Source: patent US12338262B2 (Forward Therapeutics, Inc., priority 2022, dated 2025)

Target: TNF-α (Homo sapiens, UniProt P01375)
Assay: TNF-α Induced HEK Blue Cellular Assay
Format: cell-based
Settings: HEK Blue TNFα reporter cells, TNF-α 100 pg/ml, 24 hrs at 37° C., secreted alkaline phosphatase (QUANTI-Blue, 620 nm)
Description: TNF-α Induced HEK Bluet Cellular Assay
Test articles were diluted in DMSO and serially diluted into 384 well assay plate (Corning 3765), at final concentrations ranging from […] to 0.5 nM. HEK Blue™ TNFα reporter cells were added at a final density of 10,000 cell per well in assay media [DMEM (Gibco, cat #21063-029), 10% fetal bovine serum (ExcelBio, cat #FND500), 1% Penicillin-Streptomycin (Solarbio, cat #P1400-100]. TNF-α (R&D 210-TA-020/CF) was then added to the assay plate at a final concentration of 100 pg/ml. This plate was then incubated for 24 hrs at 37° C. and 5% CO2. Secreted alkaline phosphatase expression was then measured using QUANTI-Blue™ (Invivogen), according to manufacturer instructions and read on an Envision microplate reader at 620 nm.
Inhibition data for test compound over a range of concentration was plotted as percentage inhibition of the test compound (100%=maximum inhibition). IC50 values were determined after correcting for background [(sample read-mean of low control)/(mean of high control-mean of low control)] where by the low control is DMSO without stimulation and high control is DMSO with stimulation. The IC50 is defined as the concentration of test compound which produces 50% inhibition and was quantified using the 4 parameter logistic equation to fit the data.

Sequence of TNF-α (P01375 77-233 limits assumed): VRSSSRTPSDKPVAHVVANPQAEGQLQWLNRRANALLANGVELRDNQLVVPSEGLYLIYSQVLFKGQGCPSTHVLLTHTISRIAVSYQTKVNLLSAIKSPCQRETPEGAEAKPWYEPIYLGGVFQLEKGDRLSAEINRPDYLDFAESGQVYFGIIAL

IC50 [nM]	Structure (SMILES)
≤ 100	CC[C@H](Nc1c(Cl)c(C)nc2cc(F)c(-c3ccc(P(C)(C)=O)nc3)nc12)c1cc(C#N)ccc1F [Example 44, 3-[(1S)-1-({3-chloro-6-[6-(dimethylphosphoryl)pyridin-3-yl]-7-fluoro-2-methyl-1,5-naphthyridin-4-yl}amino)propyl]-4-fluorobenzonitrile]
≤ 100	Cc1nc2cc(F)c(-c3ccc(P(C)(C)=O)nc3)nc2c(N[C@@H](C)c2cccc(F)c2F)c1Cl [Example 45, 3-chloro-N-[(1S)-1-(2,3-difluorophenyl)ethyl]-6-[6-(dimethylphosphoryl)pyridin-3-yl]-7-fluoro-2-methyl-1,5-naphthyridin-4-amine]
≤ 100	Cc1nc2cc(F)c(-c3cnc(P(C)(C)=O)nc3)nc2c(N[C@H](C)c2cccc(C#N)c2)c1Cl [Example 46, 3-[(1R)-1-({3-chloro-6-[2-(dimethylphosphoryl)pyrimidin-5-yl]-7-fluoro-2-methyl-1,5-naphthyridin-4-yl}amino)ethyl]benzonitrile]
≤ 1000	CC[C@@H](Nc1c(Cl)c(C)nc2cc(F)c(-c3cnc(P(C)(C)=O)nc3)nc12)c1cccc(C#N)c1 [Example 47, 3-[(1R)-1-({3-chloro-6-[2-(dimethylphosphoryl)pyrimidin-5-yl]-7-fluoro-2-methyl-1,5-naphthyridin-4-yl}amino)propyl]benzonitrile]
≤ 100	CC[C@@H](Nc1c(Cl)c(C)nc2cc(F)c(-c3ccc(P(C)(C)=O)nc3)nc12)c1cccc(C#N)c1 [Example 48, 3-[(1R)-1-({3-chloro-6-[6-(dimethylphosphoryl)pyridin-3-yl]-7-fluoro-2-methyl-1,5-naphthyridin-4-yl}amino)propyl]benzonitrile]
≤ 100	Cc1nc2cc(F)c(-c3cnc(P4(=O)CCCC4)nc3)nc2c(N[C@H](C)c2cc(C#N)ccc2F)c1Cl [Example 49, 3-[(1R)-1-({3-chloro-7-fluoro-2-methyl-6-[2-(1-oxo-1lambda5-phospholan-1-yl)pyrimidin-5-yl]-1,5-naphthyridin-4-yl}amino)ethyl]-4-fluorobenzonitrile]
≤ 100	Cc1nc2cc(F)c(-c3ccc(P(C)(C)=O)nc3)nc2c(N[C@H](C)c2cccc(F)c2F)c1Cl [Example 50, 3-chloro-N-[(1R)-1-(2,3-difluorophenyl)ethyl]-6-[6-(dimethylphosphoryl)pyridin-3-yl]-7-fluoro-2-methyl-1,5-naphthyridin-4-amine]
≤ 100	Cc1nc2cc(F)c(-c3ccc(P(C)(C)=O)nc3)nc2c(N[C@@H](C)c2cc(F)ccc2F)c1Cl [Example 51, 3-chloro-N-[(1S)-1-(2,5-difluorophenyl)ethyl]-6-[6-(dimethylphosphoryl)pyridin-3-yl]-7-fluoro-2-methyl-1,5-naphthyridin-4-amine]
≤ 1000	Cc1nc2cc(F)c(-c3ccc(P(C)(C)=O)nc3)nc2c(N[C@H](C)c2c(F)cccc2F)c1Cl [Example 52, 3-chloro-N-[(1R)-1-(2,6-difluorophenyl)ethyl]-6-[6-(dimethylphosphoryl)pyridin-3-yl]-7-fluoro-2-methyl-1,5-naphthyridin-4-amine]
≤ 1000	Cc1nc2cc(F)c(-c3ccc(P(C)(C)=O)nc3)nc2c(N[C@H](C)c2cc(F)ccc2F)c1Cl [Example 53, 3-chloro-N-[(1R)-1-(2,5-difluorophenyl)ethyl]-6-[6-(dimethylphosphoryl)pyridin-3-yl]-7-fluoro-2-methyl-1,5-naphthyridin-4-amine]
≤ 1000	Cc1nc2cc(F)c(-c3ccc(P(C)(C)=O)nc3)nc2c(N[C@@H](C)c2c(F)cccc2F)c1Cl [Example 54, 3-chloro-N-[(1S)-1-(2,6-difluorophenyl)ethyl]-6-[6-(dimethylphosphoryl)pyridin-3-yl]-7-fluoro-2-methyl-1,5-naphthyridin-4-amine]
10000 to 30000	Cc1nc2cc(F)c(-c3cnc(P(C)(C)=O)nc3)nc2c(N[C@H](C)c2ccccc2C(F)(F)F)c1Cl [Example 55, 3-chloro-6-[2-(dimethylphosphoryl)pyrimidin-5-yl]-7-fluoro-2-methyl-N-[(1R)-1-[2-(trifluoromethyl)phenyl]ethyl]-1,5-naphthyridin-4-amine]
≤ 100	Cc1nc2cc(F)c(-c3ccc(OCP(C)(C)=O)nc3)nc2c(N[C@H](C)c2ccccc2F)c1Cl [Example 56, 3-chloro-6-{6-[(dimethylphosphoryl)methoxy]pyridin-3-yl}-7-fluoro-N-[(1R)-1-(2-fluorophenyl)ethyl]-2-methyl-1,5-naphthyridin-4-amine]
≤ 100	CC[P@@](C)(=O)c1ccc(-c2nc3c(N[C@H](C)c4cc(C#N)ccc4F)c(Cl)c(C)nc3cc2F)cn1 [Example 57]
10000 to 30000	Cc1nc2cc(F)c(-c3ccc(P(C)(C)=O)nc3)nc2c(N[C@H](CO)c2ccccc2F)c1Cl [Example 59, (2S)-2-({3-chloro-6-[6-(dimethylphosphoryl)pyridin-3-yl]-7-fluoro-2-methyl-1,5-naphthyridin-4-yl}amino)-2-(2-fluorophenyl)ethanol]
10000 to 30000	Cc1nc2cc(F)c(-c3ccc(P(C)(C)=O)nc3)nc2c(N[C@@H](CO)c2ccccc2F)c1Cl [Example 60, (2R)-2-({3-chloro-6-[6-(dimethylphosphoryl)pyridin-3-yl]-7-fluoro-2-methyl-1,5-naphthyridin-4-yl}amino)-2-(2-fluorophenyl)ethanol]
≤ 1000	Cc1cc(P(C)(C)=O)ncc1-c1nc2c(N[C@H](C)c3cc(C#N)ccc3F)c(Cl)c(C)nc2cc1F [Example 61, 3-[(1R)-1-({3-chloro-6-[6-(dimethylphosphoryl)-4-methylpyridin-3-yl]-7-fluoro-2-methyl-1,5-naphthyridin-4-yl}amino)ethyl]-4-fluorobenzonitrile]
≤ 1000	Cc1cc(P(C)(C)=O)ncc1-c1nc2c(N[C@H](C)c3ccccc3F)c(Cl)c(C)nc2cc1F [Example 62, 3-chloro-6-[6-(dimethylphosphoryl)-4-methylpyridin-3-yl]-7-fluoro-N-[(1R)-1-(2-fluorophenyl)ethyl]-2-methyl-1,5-naphthyridin-4-amine]
≤ 1000	Cc1nc2cc(F)c(-c3cnc(P(C)(C)=O)nc3)cc2c(N[C@H](C)c2cccc(F)c2F)c1Cl [Example 65, 3-chloro-N-[(1R)-1-(2,3-difluorophenyl)ethyl]-6-[2-(dimethylphosphoryl)pyrimidin-5-yl]-7-fluoro-2-methylquinolin-4-amine]
≤ 1000	Cc1cn(-c2ccc(F)c([C@@H](C)Nc3c(Cl)c(C)nc4cc(F)c(-c5ccc(P(C)(C)=O)nc5)nc34)c2)cn1 [Example 66, 3-chloro-6-[6-(dimethylphosphoryl)pyridin-3-yl]-7-fluoro-N-[(1R)-1-[2-fluoro-5-(4-methylimidazol-1-yl)phenyl]ethyl]-2-methyl-1,5-naphthyridin-4-amine]
≤ 100	Cc1nc2cc(F)c(-c3ccc(P(C)(C)=O)nc3)cc2c(N[C@H](C)c2cccc(F)c2F)c1Cl [Example 67, 3-chloro-N-[(1R)-1-(2,3-difluorophenyl)ethyl]-6-[6-(dimethylphosphoryl)pyridin-3-yl]-7-fluoro-2-methylquinolin-4-amine]
≤ 100	CC[C@H](Nc1c(Cl)c(C)nc2cc(F)c(-c3ccc(P(C)(C)=O)nc3)nc12)c1ncccc1F [Example 68, (S)-(5-(7-chloro-3-fluoro-8-((1-(3-fluoropyridin-2-yl)propyl)amino)-6-methyl-1,5-naphthyridin-2-yl)pyridin-2-yl)dimethylphosphine oxide]
≤ 1000	CC[C@@H](Nc1c(Cl)c(C)nc2cc(F)c(-c3ccc(P(C)(C)=O)nc3)nc12)c1ncccc1F [Example 69, (R)-(5-(7-chloro-3-fluoro-8-((1-(3-fluoropyridin-2-yl)propyl)amino)-6-methyl-1,5-naphthyridin-2-yl)pyridin-2-yl)dimethylphosphine oxide]
≤ 100	Cc1nc2cc(F)c(-c3ccc(P(C)(C)=O)nc3)nc2c(N[C@@H](c2ccccc2F)C(F)(F)F)c1Cl [Example 70, 3-chloro-6-[6-(dimethylphosphoryl)pyridin-3-yl]-7-fluoro-2-methyl-N-[(1S)-2,2,2-trifluoro-1-(2-fluorophenyl)ethyl]-1,5-naphthyridin-4-amine]
≤ 1000	Cc1nc2cc(F)c(-c3cnc(P(C)(C)=O)nc3)nc2c(N[C@@H](c2ccccc2F)C(F)(F)F)c1Cl [Example 71, 3-chloro-6-[2-(dimethylphosphoryl)pyrimidin-5-yl]-7-fluoro-2-methyl-N-[(1S)-2,2,2-trifluoro-1-(2-fluorophenyl)ethyl]-1,5-naphthyridin-4-amine]
≤ 1000	Cc1nc2cc(F)c(-c3ccc(P(C)(C)=O)nc3)c(F)c2c(N[C@H](C)c2ccccc2F)c1Cl [Example 72, 3-chloro-6-[6-(dimethylphosphoryl)pyridin-3-yl]-5,7-difluoro-N-[(1R)-1-(2-fluorophenyl)ethyl]-2-methylquinolin-4-amine]
≤ 1000	CC[C@H](Nc1c(Cl)c(C)nc2cc(F)c(-c3ccc(P(C)(C)=O)nc3)c(F)c12)c1ncccc1F [Example 73, (S)-(5-(3-chloro-5,7-difluoro-4-((1-(3-fluoropyridin-2-yl)propyl)amino)-2-methylquinolin-6-yl)pyridin-2-yl)dimethylphosphine oxide]
